Test results taken from patent publication US9725462B2, “Pyridopyrimidine derivatives as protein kinase inhibitors” (Merck Patent GmbH, priority 2012, dated 2017).

molecular target: T1, SYK (Homo sapiens, UniProt P43405); assay: SYK Flash Plate Assay (enzyme assay); type: biochemical; conditions: Syk inhibition
T1 construct: 2.5 nM SYK, 400 nM Biotin-Aha-Aha-KEDPDYEWPSAKK
From the text: The following abbreviations refer respectively to the definitions below: • aq (aqueous), h (hour), g (gram), L (liter), mg (milligram), MHz (Megahertz), min. (minute), mm (millimeter), mmol (millimole), mM (millimolar), m.p. (melting point), eq (equivalent), mL (milliliter), L (microliter), ACN (acetonitrile), AcOH (acetic acid), CDCl3 (deuterated chloroform), CD3OD (deuterated methanol), CH3CN (acetonitrile), c-hex (cyclohexane), DCC (dicyclohexyl carbodiimide), DCM (dichloromethane), DIC (diisopropyl carbodiimide), DIEA (diisopropylethyl-amine), DMF (dimethylformamide), DMSO (dimethylsulfoxide), DMSO-d6 (deuterated dimethylsulfoxide), EDC (1-(3-dimethyl-amino-propyl)-3-ethylcarbodiimide), ESI (Electro-spray ionization), EtOAc (ethyl acetate), Et2O (diethyl ether), EtOH (ethanol), HATU (dimethylamino-([1,2,3]triazolo[4,5-b]pyridin-3-yloxy)-methylene]-dimethyl-ammonium hexafluorophosphate), HPLC (High Performance Liquid Chromatography), i-PrOH (2-propanol), K2CO3 (potassium carbonate), LC (Liquid Chromatography), MeOH (methanol), MgSO4 (magnesium sulfate), MS (mass spectrometry), MTBE (Methyl tert-butyl ether), NaHCO3 (sodium bicarbonate), NaBH4 (sodium borohydride), NMM (N-methyl morpholine), NMR (Nuclear Magnetic Resonance), PyBOP (benzotriazole-1-yl-oxy-tris-pyrrolidino-phosphonium hexafluorophosphate), RT (room temperature), Rt (retention time), SPE (solid phase extraction), TBTU (2-(1-H-benzotriazole-1-yl)-1,1,3,3-tetramethyluromium tetrafluoro borate), TEA (triethylamine), TFA (trifluoroacetic acid), THF (tetrahydrofuran), TLC (Thin Layer Chromatography), UV (Ultraviolet). Description of the In Vitro Assays SYK Flash Plate Assay
The kinase assay is performed either as 384-well Flashplate assay (for e.g. Topcount measurement) or as 384-well Image-Flashplate assay (for LEADseeker measurement).
2.5 nM SYK, 400 nM Biotin-Aha-Aha-KEDPDYEWPSAKK
and 10 μM ATP (spiked with 0.3 μCi 33P-ATP/well) are incubated in a total volume of 50 μl (60 mM Hepes, 10 mM MgCl2, 1.2 mM Dithiothreitol, 0.02% Brij35, 0.1% BSA, pH 7.5) with or without test compound for 1 hours at 30° C. The reaction is stopped with 25 μl 200 mM EDTA. After 30 Min at 30° C. the liquid is removed and each well washed thrice with 100 μl 0.9% sodium chloride solution. Non-specific reaction is determined in presence of 0.1 μM Staurosporine. Radioactivity is measured with Topcount (when using Flashplates) or with LEADseeker (when using Image-Flashplates) respectively. Results (e.g. IC50-values) are calculated with program tools provided by the IT-department (e.g. Symyx Assay Explorer, Genedata Screener). In Vivo Assays CIA

| SMILES | IC50 [µM] |
| --- | --- |
| N[C@@H]1CCCC[C@@H]1Nc1ncc2cncc(-c3cc4ccc(F)cc4[nH]3)c2n1 (stereo in doubt) [Compound A42, (1S,2R)-N-[8-(6-Fluoro-1H-indol-2-yl)-pyrido[4,3-d]pyrimidin-2-yl]-cyclohexane-1,2-diamine] | 1 to 50 |
| N#Cc1ccc2c(-c3cncc4cnc(N[C@@H]5CCCC[C@@H]5N)nc34)c[nH]c2c1 [Compound A45, 3-[2-((1R,2S)-2-Amino-cyclohexylamino)-pyrido[4,3-d]pyrimidin-8-yl]-1H-indole-6-carbonitrile] | < 0.1 |
| N[C@H]1CCCC[C@H]1Nc1ncc2cncc(-c3ccc4[nH]cnc4c3)c2n1 [Compound A36] | 1 to 50 |
| N[C@H]1CCCC[C@H]1Nc1ncc2c(C(F)F)ncc(-c3c[nH]c4cc(C(F)(F)F)ccc34)c2n1 [Compound A82] | < 0.1 |
| COc1ccc2c(-c3cncc4cnc(N[C@H]5CCCC[C@H]5N)nc34)c[nH]c2c1 (stereo in doubt) [Compound A40, (1S,2R)-N-[8-(6-Methoxy-1H-indol-3-yl)-pyrido[4,3-d]pyrimidin-2-yl]-cyclohexane-1,2-diamine] | < 0.1 |
| COc1cccc2cc(-c3cnc(N)c4cnc(N[C@@H]5CCCC[C@@H]5N)nc34)[nH]c12 (relative stereo) [Compound A18, N2-(cis-2-Amino-cyclohexyl)-8-(7-methoxy-1H-indol-2-yl)-pyrido[4,3-d]pyrimidine-2,5-diamine] | < 0.1 |
| Cc1ncc(-c2c[nH]c3cc(C#N)ccc23)c2nc(N[C@H]3CCCC[C@H]3N)ncc12 (relative stereo) [Compound A85, 3-[2-((cis)-2-amino-cyclohexylamino)-5-methyl-pyrido[4,3-d]pyrimidin-8-yl]-1H-indole-6-carbonitrile] | 0.1 to 1 |
| N#Cc1ccc2c(-c3cnc(C(F)F)c4cnc(N[C@@H]5CCCC[C@@H]5N)nc34)c[nH]c2c1 [Compound A87, 3-[2-((1R,2S)-2-amino-cyclohexylamino)-5-difluoromethyl-pyrido[4,3-d]-pyrimidin-8-yl]-1H-indole-6-carbonitrile] | < 0.1 |
| N[C@H]1CCCC[C@H]1Nc1ncc2cncc(-c3cc4cccc(F)c4[nH]3)c2n1 [Compound A81] | 0.1 to 1 |
| N[C@H]1CCCC[C@H]1Nc1ncc2cncc(-c3c[nH]c4cnccc34)c2n1 [Compound A76] | < 0.1 |
| CN1CN(c2ncc3c(N)ncc(-c4cnn(C)c4)c3n2)[C@@H]2CCCC[C@@H]21 (single isomer, unassigned) [Compound A11, 2-((cis)-3-Methyl-octahydro-benzoimidazol-1-yl)-8-(1-methyl-1H-pyrazol-4-yl)-pyrido[4,3-d]pyrimidin-5-ylamine] | 1 to 50 |
| N#Cc1ccc2c(-c3cncc4cnc(N[C@@H]5CCOC[C@@H]5N)nc34)c[nH]c2c1 [Compound A69, 3[2-((3R,4R)-3-Amino-tetrahydro-pyran-4-ylamino)-pyrido[4,3-d]pyrimidin-8-yl]-1H-indole-6-carbonitrile] | 0.1 to 1 |
| Cc1cccc(-c2cncc3cnc(N[C@H]4CCCC[C@H]4N)nc23)c1 (stereo in doubt) [Compound A31, (1S,2R)-N-(8-m-Tolyl-pyrido[4,3-d]pyrimidin-2-yl)-cyclohexane-1,2-diamine] | 0.1 to 1 |
| COC[C@H](N)CNc1ncc2cncc(-c3c[nH]c4cc(C(F)(F)F)ccc34)c2n1 [Compound A61, (2R)-3-Methoxy-N1-[8-[6-(trifluoromethyl)-1H-indol-3-yl]pyrido[4,3-d]pyrimidin-2-yl]propane-1,2-diamine] | 1 to 50 |
| COC[C@H](N)CNc1ncc2c(N)ncc(-c3cnn(C)c3)c2n1 [Compound A20, N2-((R)-2-Amino-3-methoxy-propyl)-8-(1-methyl-1H-pyrazol-4-yl)-pyrido[4,3-d]pyrimidine-2,5-diamine] | 0.1 to 1 |
| CC(C)(C)c1ccc(-c2cnc(N)c3cnc(N[C@H]4CCCC[C@H]4N)nc23)cc1 (relative stereo) [Compound A7, N2-(cis-2-Amino-cyclohexyl)-8-(4-tert-butyl-phenyl)-pyrido[4,3-d]pyrimidine-2,5-diamine] | 1 to 50 |
